From PMC4865917, “Positive Allosteric Modulation of the Glucagon-like Peptide-1 Receptor by Diverse Electrophiles” (The Journal of Biological Chemistry, 2016) come the findings set out here.

Test [1] concerns the target T1, human GLP-1R (Homo sapiens, UniProt P43220).
T1 construct: gene GLP1R; full-length receptor expressed in HEK293 cells; C347A mutant carries a 1xFLAG tag
In words: HTRF cAMP accumulation, HEK293 cells. Format: cell-based. The text has this: (§1) HTRF cAMP accumulation, HEK293 cells on human GLP-1R
A general note: TR-FRET usually uses a lanthanide donor and a delayed reading to cut background.

The target of test [2] is T2, human GLP-1R (Homo sapiens, UniProt P43220, C347A).
T2 construct: gene GLP1R; full-length receptor expressed in HEK293 cells; C347A mutant carries a 1xFLAG tag
In words: HTRF cAMP accumulation, HEK293 cells. It is filed as cell-based.
Excerpt: as §1

Test [3] has as its target T3, human CatL (Homo sapiens, UniProt P07711).
T3 construct: gene CTSL; commercial cathepsin L (Calbiochem)
In words: fluorogenic Z-Phe-Arg-AMC hydrolysis. Format: biochemical.

Test [4] concerns the target T1, human GLP-1R. In words: anti-FLAG immunoprecipitation, PAGE fluorography. It is filed as cell-based. Particulars: 500 nM [3H]BETP, 2 h, 37 °C, GLP-1R-3xFLAG in HEK293; covalent; labelled compound.
Where [5] appears, read: read-out: Compound, EC50 WT (nM) (S.D., n).
The mark [6] stands for this setting: read-out: EC50, C347A (nM) (S.D., n).
The mark [7] stands for this setting: read-out: Compound, EC50, C347A (nM) (S.D., n).
The mark [8] stands for this setting: read-out: Compound, EC50, WT (nM) (S.D., n).

Read-outs that look alike come from different tables or passages of the source.

T2 sequence (P43220 24-463 C347A): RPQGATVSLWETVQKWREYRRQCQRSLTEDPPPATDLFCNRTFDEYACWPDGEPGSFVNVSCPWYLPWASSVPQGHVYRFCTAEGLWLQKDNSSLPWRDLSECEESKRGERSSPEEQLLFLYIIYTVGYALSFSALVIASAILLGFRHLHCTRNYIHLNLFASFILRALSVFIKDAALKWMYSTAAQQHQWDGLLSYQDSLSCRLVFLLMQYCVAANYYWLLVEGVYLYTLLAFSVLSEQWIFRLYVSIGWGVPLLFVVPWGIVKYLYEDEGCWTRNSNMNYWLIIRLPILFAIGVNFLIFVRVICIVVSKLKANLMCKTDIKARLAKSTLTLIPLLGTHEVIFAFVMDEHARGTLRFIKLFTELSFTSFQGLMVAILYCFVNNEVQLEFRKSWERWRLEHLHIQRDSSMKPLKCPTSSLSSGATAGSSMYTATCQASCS
T3 sequence (P07711 114-288 limits assumed): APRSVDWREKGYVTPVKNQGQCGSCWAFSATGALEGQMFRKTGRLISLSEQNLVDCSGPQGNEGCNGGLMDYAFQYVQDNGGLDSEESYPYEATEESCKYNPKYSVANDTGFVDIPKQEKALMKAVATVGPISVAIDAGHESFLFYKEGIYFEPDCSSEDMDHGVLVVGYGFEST
T3 sequence (P07711 292-333 limits assumed): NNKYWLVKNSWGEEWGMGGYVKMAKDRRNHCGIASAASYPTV
T1 sequence (P43220 24-463): as the sequence (P43220 24-463 C347A) above, with A324C counted along it

One may read the EC50 as the concentration that produces a half-maximal response. Consider `O=C(Oc1cccc(-c2cn3cc(C(F)(F)F)cc(Cl)c3n2)c1)C1CCCCC1` [compound 8], for which the EC50 in test [1] (setting [5]) is over 30000 nM.
As for `CC1(C)CC(=O)c2c(S(C)(=O)=O)sc(C(=O)c3ccc(-c4ccccc4)cc3)c2C1` [compound 6], the figures for the EC50 in test [2] (setting [6]) and in test [1] (setting [5]) were over 30000 nM and 1430 nM, respectively.
As to `Cc1nnc(Sc2nc3cc(Cl)c(Cl)cc3nc2C(F)(F)F)s1` [compound 1], the EC50 was over 30000 nM in test [2] (setting [6]) and 860 nM in test [1] (setting [5]).
The IC50 is the midpoint of a concentration-inhibition curve. Consider `O=C(NCc1ccccc1)[C@H](Cc1ccccc1)NC(=O)[C@H]1O[C@@H]1C(=O)NCCc1ccc(O)cc1` [CAA0225, (2S,3S)-N2-[(1S)-1-benzyl-2-(benzylamino)-2-oxo-ethyl]-N3-[2-(4-hydroxyphenyl)ethyl]oxirane-2,3-dicarboxamide, reference compound], for which the IC50 in test [3] (read-out: IC50) is 0.006 µM.
For the compound `Cc1ccc(-c2cccc(C(=O)NC(Cc3ccc(-c4noc(-c5ccc(NC(=O)OC(C)(C)C)cc5)n4)c(F)c3)C(=O)O)c2)cc1` (centres unmarked) [compound 9], the EC50 in test [2] (setting [6]) is 1400 nM; in test [1] (setting [5]), 1500 nM.
As to `Clc1nc2c(-c3ccccc3)nnn2c2ccccc12` [compound 11], the IC50 in test [3] (read-out: CatL,^c IC50) was over 33 µM. For the same compound, the values for the EC50 in test [2] (setting [7]) and in test [1] (setting [8]) were over 30000 nM and 7000 nM, respectively.
As to `CC(=O)NC1=C(Cl)C(=O)c2ccccc2C1=O` [compound 18], the EC50 in test [2] (setting [7]) is over 30000 nM.
For the compound `CC[S+]([O-])c1nc(-c2cccc(OCc3ccccc3)c2)cc(C(F)(F)F)n1` (centres unmarked) [BETP, 4-(3-benzyloxyphenyl)-2-ethylsulfinyl-6-(trifluoromethyl)pyrimidine], in test [4], the “anti-FLAG immunoprecipitation, PAGE fluorography” value was “The finding that [^3H]BETP irreversibly labels the GLP-1R”. The IC50 in test [3] (read-out: CatL,^c IC50) was over 33 µM. Further, the results for the EC50 in test [2] (setting [6]) and in test [1] (setting [5]) were over 30000 nM and 1300 nM, respectively.
Regarding `FC(F)(F)c1nc2cc(Cl)c(Cl)cc2nc1Cl` [compound 3], the results for the EC50 in test [2] (setting [6]) and in test [1] (setting [5]) were over 30000 nM and 4700 nM, respectively.
As to `Clc1nc2ccc3nsnc3c2nc1Cl` [compound 14], in test [3] (read-out: CatL,^c IC50), the IC50 was over 33 µM. Further, in test [2] (setting [7]), the EC50 was over 30000 nM.
Regarding `CC(C)(C)Nc1nc2cc(Cl)c(Cl)cc2nc1S(C)(=O)=O` [compound 2], the EC50 in test [2] (setting [6]) is over 30000 nM; in test [1] (setting [5]), 25 nM.
In the case of `O=[N+]([O-])c1ccc2nc(S(=O)(=O)c3ccc(Cl)cc3)sc2c1` [compound 17], in test [3] (read-out: CatL,^c IC50), the IC50 came to 8 µM. Moreover, the EC50 in test [2] (setting [7]) is over 30000 nM.
For the compound `CS(=O)(=O)c1nc(-c2ccccc2)cc(-c2ccccc2)c1C#N` [compound 12], the IC50 in test [3] (read-out: CatL,^c IC50) was over 33 µM. The EC50 was over 30000 nM in test [2] (setting [7]) and 6000 nM in test [1] (setting [8]).
The corresponding values for `CS(=NC(=O)Nc1ccc(Cl)cc1)c1sc(Cl)c2c1C(=O)CCC2` (centres unmarked) [compound 16] are 12 µM, over 30000 nM and 5200 nM.
Turning to `CCOC(=O)c1ccc(N2Cc3ccccc3C(=Cc3ccc(Br)cc3)C2=N)cc1` [compound 13], the IC50 in test [3] (read-out: CatL,^c IC50) was over 33 µM. The EC50 in test [2] (setting [7]) was over 30000 nM; in test [1] (setting [8]) it was 1000 nM.
Turning to `CCSc1nc(-c2cccc(OCc3ccccc3)c2)cc(C(F)(F)F)n1` [th-BETP, 4-(3-benzyloxyphenyl)-2-ethylsulfanyl-6-(trifluoromethyl)pyrimidine], the EC50 in test [1] (setting [5]) is over 30000 nM.
Take `FC(F)(F)c1nc2ccccc2nc1Sc1ccc(Cl)cc1` [compound 7]: the EC50 in test [1] (setting [5]) was over 30000 nM.
Consider `CC1(C)CC(=O)c2c(S(C)(=O)=O)sc(-c3nnc(-c4ccc(C(C)(C)C)cc4)o3)c2C1` [compound 5], for which the EC50 in test [2] (setting [6]) was over 30000 nM; in test [1] (setting [5]), 1500 nM.
With `O=C1C=CC(=O)N1c1cccc(C(F)(F)F)c1` [compound 19], the EC50 in test [2] (setting [7]) is over 30000 nM.
As to `O=S(=O)(c1ccccc1)c1nc(-c2ccccc2)ns1` [compound 15], the IC50 in test [3] (read-out: CatL,^c IC50) was 25 µM. The EC50 in test [2] (setting [7]) is over 30000 nM; in test [1] (setting [8]), 1300 nM.
